Common to all, as to assay type: cell-based, human
Assay [1] deals with panel of miRNAs in BFTC 905 cells. The assay is described as follows: Expression of a panel of miRNAs. The note with it: COX2 inhibitor. How it is done: (§1) Total RNA from cell lines was isolated using the RNeasy Plus Mini kit (Qiagen, Valencia, USA) according to the manufacturer's protocol. Total RNA extraction from bladder tissue was performed with the QIAzol Lysis Reagent (Qiagen) followed by phenol extraction and ethanol precipitation. Total RNA was eluted in DEPC treated water and stored at −80 ° C. Total RNA extraction from urine was performed using the MirVana miRNA Isolation Kit (Ambion, Austin, USA). These total RNA were converted to cDNA using the SuperScript III First-Strand Synthesis System (Life technologies, Carlsbad, USA), which was then used as a template for Q-RT-PCR. Q-RT-PCR was performed using the Fast SYBR Green Master Mix (Thermo Fisher Scientific, Waltham, USA) on a 7900HT Fast Real-Time PCR System (Life technologies) in triplicate. Micro RNA (miRNA) extraction was performed using the MirVana miRNA Isolation Kit, and was reverse transcribed using TaqMan reverse transcription kit (Applied Biosystems, Foster City, USA) and miRNA-specific RT primers provided with TaqMan microRNA assays (Applied Biosystems). Q-RT-PCR for miRNAs was performed using the TaqMan Universal PCR Master Mix according to the manufacturer's protocol. SDS software (Applied Biosystems) was used to determine cycle threshold (Ct) values. Expression level was quantified relative to β-actin for mRNA and RNU6B for miRNA using the 2-ΔΔCt method (12).

The test system of assay [2] is let-7. The assay is described as follows: let-7 expression by Q-RT-PCR. Conditions: parental or spheroid bladder cancer cells. As to the method:
as §1
For demethylation, cells (1×10^6/T-75 flask) were treated with […] of the demethylating agent 5-Aza-dC (Sigma) dissolved in 50% acetic acid or were mock-treated with phosphate buffered saline (PBS) including the same amount of acetic acid every 24 hours for 5 days. When combined with the histone deacetylase inhibitor TSA (Sigma), 300 nmol/L TSA was added to the medium for the final 24 hours.

The test system of assay [3] is SOX2. Briefly: Western blotting / flow cytometry of SOX2 expression in bladder cancer cells. How it is done:
(§2) Whole cell lysates were extracted using RIPA buffer (Thermo Scientific) supplemented with 10 μL/mL Halt™ Protease Inhibitor Cocktail Kit (Life Technologies) and 30 μL/mL Halt™ Phosphatase Inhibitor Cocktail Kit (Life Technologies). The protein concentrations were determined using a Pierce™ BCA Protein Assay Kit (Life Technologies), and the protein were separated on. NuPAGE 4-12% Bis-Tris Gel (Life Technologies) according to the manufacturer's protocol. COX2 (D5H5), NANOG (D73G4), OCT4 (D7O5Z), CD133 (A3G6K), Snail (C15D3), ZEBI (D80D3), Vimentin (D21H3), CDH2 (D4R1H), CDH1 (24E10), p-EGFR (D7A5), EGFR (D38B1), p-AKT (D9E), AKT (cat #, 9272), p-ERK (D13.14.4E), ERK (137F5), p-YAP1 (D9W2I), p-Src (cat #, 2101), Src (36D10), DNMT1 (D63A6), DNMT3A (D23G1), and DNMT3B (D7070) antibodies were obtained from Cell Signaling Technology (Danvers, Mass., USA), except for SOX2 (EPR3131; Abeam, Cambridge, USA), YAP1 (ab52771; Abeam), CD24 (cat #, AF5247-SP; R&D Systems, Minneapolis USA) and β-actin (A2228; Sigma-Aldrich). Secondary horseradish peroxidase (HRP)-conjugated antibodies were obtained from Cell Signaling Technology, and chemiluminescent detection of HRP-labeled antibodies was performed using Amersham ECL Prime Western Blotting Detection Reagent (GE Healthcare, Piscataway, USA). As loading control, β-actin was used.
For extracellular staining, cells (1×10^6/100 μL stain buffer) were incubated with PE-Vio770-conjugated anti-human CD133 (293C3; Miltenyi Biotec, Auburn, USA) or PE-conjugated anti-human CD24 antibody (cat #, 560991; BD Biosciences) for 30 min at 4° C. in dark. PE-Vio770-conjugated anti-IgG1κ Isotype (cat #, 130-098-563; Miltenyi Biotec) and PE-conjugated IgG2a, κ Isotype (cat #, 555574; BD Biosciences) were used as control for CD133 and CD24 staining, respectively. Staining for intracellular SOX2 was carried out using the BD Cytofix/Cytopem Fixation/Permeabilization Kit (BD Biosciences) according to manufacturer's protocol. The cells were incubated with Alexa Fluor 647-conjugated anti-SOX2 antibody (cat #, 560302; BD Biosciences) for 40 min at 4° C. in dark. Alexa Fluor 647-conjugated anti-IgG2a, κ Isotype (cat #, 558053; BD Biosciences) was used as control. Data were acquired on a BD FACSCalibur flow cytometer (BD Biosciences) using BD CellQuest Pro software (BD Biosciences) and analyzed with FlowJo software v10.1 (Tree Star, Ashland, USA).

Assay [4] relates to YAP1. Briefly: Western blotting of YAP1 expression in bladder cancer cells. How it is done:
as §2

The subject of assay [5] is bladder cancer cells (urothelial CSCs). The assay is described as follows: Sphere formation assay. How it is done: Sphere formation was induced by culturing cells (2×10^4/well) in […] F12 50/50 Mix (Mediatech) supplemented with B-27 (Life Technologies), 20 ng/mL FGF-basic (Peprotech), 20 ng/mL EGF (Peprotech). Cell culture was performed in ultra-low attachment 6 well plates (Corning, Lowell, USA) for 10 days. The medium was replaced every other day. Sphere formation was evaluated using the inverted phase-contrast microscope, and single sphere with a diameter larger than 100 gm was counted using NIS-Elements Microscope Imaging Software. To redifferentiate spheres, spheres were plated in standard growth medium with 10% FBS in dishes supporting cell attachment, and incubated for 7 days. For self-renewal assay, primary spheres were collected by gentle centrifugation (5 min at 400×g), dissociated with Stempro Accutase Cell Dissociation Reagent (Life Technologies), and mechanically disrupted with a pipette. The cell suspension was sieved through 40 μm cell strainer cap filter to achieve a single-cell suspension, and then equal numbers of alive cells were plated in ultralow attachment plates to generate the second spheres. Again, spheres were counted on day 14 and digested to generate the third Spheres. All the experiments were performed in triplicate and repeated at least three times.

Assay [6] deals with AKT and extracellular signal-related kinase (ERK). Briefly: Western blotting of AKT and ERK activation. Conditions: basal-type cells, erlotinib. How it is done:
as §2

Assay [7] relates to COX2. Briefly: Western blotting of COX2 expression in bladder cancer cells. How it is done: as §2
[8] abbreviates: basal-type cells, 1 μM erlotinib.
[9] abbreviates: non-basal-type cells, erlotinib.

Turning to `Cc1ccc(-c2cc(C(F)(F)F)nn2-c2ccc(S(N)(=O)=O)cc2)cc1` [celecoxib, Celecoxib], in assay [1], the “expression of several miRNAs” value is on record as “induced expression”. The let-7 expression entry in assay [2] was “restoration of let-7 expression”. The SOX2 expression result in assay [3] (COX2 inhibitor or EP4 antagonist alone (FIG. 2A-B, S7)) is on record as “SOX2 downregulation”. For the same compound, in assay [3] (basal-type cells, COX2 inhibitor added to erlotinib), the “erlotinib-increased SOX2 expression” value is given as “impaired”. Also, in assay [4] (COX2 inhibitor added to erlotinib), the “induction of YAP1 expression” value is given as “no longer able to induce YAP1 expression”. In assay [5] (COX2 inhibitor or EP4 antagonist alone), the “sphere-forming ability / sphere formation” value is given as “repressed”. In addition, the erlotinib-increased sphere formation result in assay [5] (basal-type cells, COX2 inhibitor added to erlotinib (10 μM celecoxib, 72 hours)) is recorded as “impaired”.
On to `C#Cc1cccc(Nc2ncnc3cc(OCCOC)c(OCCOC)cc23)c1` [erlotinib, Erlotinib], for which the “activation of AKT and ERK” value in assay [6] is on record as “suppressed activation”. The COX2 expression result in assay [7] (setting [8]) was “increased COX2 expression”. For the same compound, the “levels of COX2 expression” value in assay [7] (setting [9]) is “did not affect”. Moreover, the “level of SOX2 expression over time” value in assay [3] (setting [8]) was “decreased at 1 hour after treatment with erlotinib and then gradually increased”. Moreover, the YAP1 expression result in assay [4] (setting [8]) is “continuously decreased YAP1 expression”. In addition, in assay [4] (setting [9]), the “levels of YAP1 expression” value is reported as “did not affect”. The number of spheres entry in assay [5] (basal-type cells, 1 μM erlotinib for 72 hours) is “enriched number of spheres”.
